# Measurements published in ChEMBL document CHEMBL1201862, “PubChem BioAssay data set” (2004).
#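 Cultured in 96-well plates, cells were exposed to test compound for 48 hours across five concentrations. GI50 is the concentration that inhibits growth by half.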 The source made the active and inactive calls. No stated cut-off is given here; in the data, active = GI50 up to about 1.1 µM and inactive = higher.
# Key:
# Assay in all cases: NCI-60 cell line screen, 48 h
# [1] = system: 786-0
# [2] = system: A498
# [3] = system: A549
# [4] = system: ACHN
# [5] = system: BT-549
# [6] = system: CAKI-1
# [7] = system: CCRF-CEM
# [8] = system: COLO 205
# [9] = system: DU-145
# [10] = system: EKVX
# [11] = system: HCC 2998
# [12] = system: HCT-116
# [13] = system: HCT-15
# [14] = system: HOP-62
# [15] = system: HOP-92
# [16] = system: HT-29
# [17] = system: Hs-578T
# [18] = system: IGROV-1
# [19] = system: KM12
# [20] = system: LOX IMVI
# [21] = system: M14
# [22] = system: MCF7
# [23] = system: MDA-MB-231
# [24] = system: MDA-MB-435
# [25] = system: MDA-N
# [26] = system: MOLT-4
# [27] = system: Malme-3M
# [28] = system: NCI-H226
# [29] = system: NCI-H23
# [30] = system: NCI-H460
# [31] = system: NCI-H522
# [32] = system: NCI/ADR-RES
# [33] = system: OVCAR-3
# [34] = system: OVCAR-4
# [35] = system: OVCAR-5
# [36] = system: OVCAR-8
# [37] = system: PC-3
# [38] = system: RPMI-8226
# [39] = system: SF-268
# [40] = system: SF-295
# [41] = system: SF-539
# [42] = system: SK-MEL-28
# [43] = system: SK-MEL-2
# [44] = system: SK-MEL-5
# [45] = system: SK-OV-3
# [46] = system: SN12C
# [47] = system: SNB-19
# [48] = system: SNB-75
# [49] = system: SR
# [50] = system: SW-620
# [51] = system: T47D
# [52] = system: TK-10
# [53] = system: U-251
# [54] = system: UACC-257
# [55] = system: UACC-62
# [56] = system: K562
# [57] = system: RXF 393
# [58] = system: UO-31
smiles,measurement,setting,value
O=C(O)Cn1cnc2c(O)nc(Nc3ccccc3)nc21,GI50,[1],> 100 µM (inactive)
same,GI50,[2],> 100 µM (inactive)
same,GI50,[3],> 100 µM (inactive)
same,GI50,[4],> 100 µM (inactive)
same,GI50,[5],> 100 µM (inactive)
same,GI50,[6],> 100 µM (inactive)
same,GI50,[7],> 100 µM (inactive)
same,GI50,[8],> 100 µM (inactive)
same,GI50,[9],> 100 µM (inactive)
same,GI50,[10],> 100 µM (inactive)
same,GI50,[11],> 100 µM (inactive)
same,GI50,[12],> 100 µM (inactive)
same,GI50,[13],> 100 µM
same,GI50,[14],> 100 µM (inactive)
same,GI50,[15],> 100 µM (inactive)
same,GI50,[16],> 100 µM (inactive)
same,GI50,[17],> 100 µM (inactive)
same,GI50,[18],> 100 µM (inactive)
same,GI50,[19],> 100 µM (inactive)
same,GI50,[20],> 100 µM (inactive)
same,GI50,[21],> 100 µM (inactive)
same,GI50,[22],> 100 µM (inactive)
same,GI50,[23],> 100 µM (inactive)
same,GI50,[24],> 100 µM (inactive)
same,GI50,[25],> 100 µM (inactive)
same,GI50,[26],> 100 µM (inactive)
same,GI50,[27],> 100 µM (inactive)
same,GI50,[28],> 100 µM (inactive)
same,GI50,[29],> 100 µM (inactive)
same,GI50,[30],> 100 µM (inactive)
same,GI50,[31],> 100 µM (inactive)
same,GI50,[32],> 100 µM (inactive)
same,GI50,[33],> 100 µM (inactive)
same,GI50,[34],> 100 µM (inactive)
same,GI50,[35],> 100 µM (inactive)
same,GI50,[36],> 100 µM (inactive)
same,GI50,[37],> 100 µM (inactive)
same,GI50,[38],> 100 µM (inactive)
same,GI50,[39],> 100 µM (inactive)
same,GI50,[40],> 100 µM (inactive)
same,GI50,[41],> 100 µM (inactive)
same,GI50,[42],> 100 µM (inactive)
same,GI50,[43],> 100 µM (inactive)
same,GI50,[44],> 100 µM (inactive)
same,GI50,[45],> 100 µM (inactive)
same,GI50,[46],> 100 µM (inactive)
same,GI50,[47],> 100 µM (inactive)
same,GI50,[48],> 100 µM (inactive)
same,GI50,[49],> 100 µM (inactive)
same,GI50,[50],> 100 µM (inactive)
same,GI50,[51],> 100 µM (inactive)
same,GI50,[52],> 100 µM (inactive)
same,GI50,[53],> 100 µM (inactive)
same,GI50,[54],> 100 µM (inactive)
same,GI50,[55],> 100 µM (inactive)
O=c1c2cc3c(=O)n4c(cc(-c5ccccc5)c5cc(Cl)ccc54)nc3cc2nc2cc(-c3ccccc3)c3cc(Cl)ccc3n12,GI50,[1],64.1 µM (inactive)
same,GI50,[2],> 100 µM (inactive)
same,GI50,[3],> 100 µM (inactive)
same,GI50,[4],76.6 µM (inactive)
same,GI50,[5],> 100 µM (inactive)
same,GI50,[6],> 100 µM (inactive)
same,GI50,[7],> 100 µM (inactive)
same,GI50,[8],> 100 µM (inactive)
same,GI50,[9],> 100 µM (inactive)
same,GI50,[10],75.3 µM (inactive)
same,GI50,[11],> 100 µM (inactive)
same,GI50,[12],> 100 µM (inactive)
same,GI50,[13],> 100 µM
same,GI50,[14],34.9 µM (inactive)
same,GI50,[15],> 100 µM (inactive)
same,GI50,[16],> 100 µM (inactive)
same,GI50,[17],43.4 µM (inactive)
same,GI50,[18],> 100 µM (inactive)
same,GI50,[56],> 100 µM (inactive)
same,GI50,[19],> 100 µM (inactive)
same,GI50,[20],> 100 µM (inactive)
same,GI50,[21],> 100 µM (inactive)
same,GI50,[22],> 100 µM (inactive)
same,GI50,[23],39.4 µM (inactive)
same,GI50,[24],> 100 µM (inactive)
same,GI50,[25],> 100 µM (inactive)
same,GI50,[26],> 100 µM (inactive)
same,GI50,[28],> 100 µM (inactive)
same,GI50,[29],> 100 µM (inactive)
same,GI50,[30],> 100 µM (inactive)
same,GI50,[31],> 100 µM (inactive)
same,GI50,[32],> 100 µM (inactive)
same,GI50,[33],> 100 µM (inactive)
same,GI50,[35],> 100 µM (inactive)
same,GI50,[36],> 100 µM (inactive)
same,GI50,[37],> 100 µM (inactive)
same,GI50,[38],> 100 µM (inactive)
same,GI50,[57],34.8 µM (inactive)
same,GI50,[39],> 100 µM (inactive)
same,GI50,[40],> 100 µM (inactive)
same,GI50,[41],> 100 µM (inactive)
same,GI50,[42],> 100 µM (inactive)
same,GI50,[43],> 100 µM (inactive)
same,GI50,[44],> 100 µM (inactive)
same,GI50,[45],> 100 µM (inactive)
same,GI50,[46],> 100 µM (inactive)
same,GI50,[47],45.6 µM (inactive)
same,GI50,[48],36.8 µM (inactive)
same,GI50,[49],> 100 µM (inactive)
same,GI50,[50],> 100 µM (inactive)
same,GI50,[51],> 100 µM (inactive)
same,GI50,[52],> 100 µM (inactive)
same,GI50,[53],52.4 µM (inactive)
same,GI50,[54],> 100 µM (inactive)
same,GI50,[55],> 100 µM (inactive)
same,GI50,[58],37.8 µM (inactive)
C=C(C)COC(=O)COCC(=O)OCC(=C)C,GI50,[1],> 100 µM (inactive)
same,GI50,[2],> 100 µM (inactive)
same,GI50,[3],> 100 µM (inactive)
same,GI50,[4],> 100 µM (inactive)
same,GI50,[5],> 100 µM (inactive)
same,GI50,[6],> 100 µM (inactive)
same,GI50,[7],> 100 µM (inactive)
same,GI50,[8],> 100 µM (inactive)
same,GI50,[9],> 100 µM (inactive)
same,GI50,[10],> 100 µM (inactive)
same,GI50,[11],> 100 µM (inactive)
same,GI50,[12],> 100 µM (inactive)
same,GI50,[13],> 100 µM
same,GI50,[14],> 100 µM (inactive)
same,GI50,[15],> 100 µM (inactive)
same,GI50,[16],> 100 µM (inactive)
same,GI50,[17],> 100 µM (inactive)
same,GI50,[18],> 100 µM (inactive)
same,GI50,[56],> 100 µM (inactive)
same,GI50,[19],> 100 µM (inactive)
same,GI50,[21],> 100 µM (inactive)
same,GI50,[22],> 100 µM (inactive)
same,GI50,[23],> 100 µM (inactive)
same,GI50,[24],> 100 µM (inactive)
same,GI50,[25],> 100 µM (inactive)
same,GI50,[26],> 100 µM (inactive)
same,GI50,[27],> 100 µM (inactive)
same,GI50,[28],> 100 µM (inactive)
same,GI50,[29],> 100 µM (inactive)
same,GI50,[30],> 100 µM (inactive)
same,GI50,[32],> 100 µM (inactive)
same,GI50,[33],> 100 µM (inactive)
same,GI50,[34],> 100 µM (inactive)
same,GI50,[35],> 100 µM (inactive)
same,GI50,[36],> 100 µM (inactive)
same,GI50,[37],95.3 µM (inactive)
same,GI50,[38],> 100 µM (inactive)
same,GI50,[57],> 100 µM (inactive)
same,GI50,[39],> 100 µM (inactive)
same,GI50,[40],> 100 µM (inactive)
same,GI50,[42],> 100 µM (inactive)
same,GI50,[44],> 100 µM (inactive)
same,GI50,[45],> 100 µM (inactive)
same,GI50,[46],> 100 µM (inactive)
same,GI50,[47],> 100 µM (inactive)
same,GI50,[48],> 100 µM (inactive)
same,GI50,[49],> 100 µM (inactive)
same,GI50,[50],> 100 µM (inactive)
same,GI50,[51],> 100 µM (inactive)
same,GI50,[52],> 100 µM (inactive)
same,GI50,[53],> 100 µM (inactive)
same,GI50,[54],> 100 µM (inactive)
same,GI50,[55],> 100 µM (inactive)
same,GI50,[58],> 100 µM (inactive)
